pIC50: −log10 of the molar value. Calls of active or inactive are those of the source. The calls are words filed in the database; no cut-off is given here.
Columns and labels:
[1] = test system: B16-F10; assay: Cytotoxicity against mouse B16F10 cells at 100 uM after 48 hrs by MTT assay; type: functional
[2] = test system: B16-F10; assay: Cytotoxicity against mouse B16F10 cells after 48 hrs by MTT assay; type: functional, cell-based; settings: B16-F10, 48 h

Row | Compound | inhibition [1] | pIC50 [2] | other results
1 | CCOC(=O)[C@]1(C)CCC[C@@]2(C)[C@@H]3CC[C@@]4(C)C[C@]3(CC[C@@H]21)CC4=O | inactive |  | 
2 | C=C[C@]12CC[C@H]3[C@@](C)(CCC[C@@]3(C)C(=O)OCC)[C@@H]1CC[C@](C)(CO)C2 |  | 4.62 | 
3 | CCOC(=O)[C@]1(C)CCC[C@@]2(C)[C@@H]3CC[C@@]4(C)C[C@]3(CC[C@@H]21)[C@H](COC(=O)c1cccnc1)[C@H]4OC(=O)c1cccnc1 |  | 4.66 | 
4 | CCOC(=O)[C@]1(C)CCC[C@@]2(C)[C@@H]3CC[C@@]4(C)C[C@]3(CC[C@@H]21)[C@H](COC(=O)c1cccnc1)[C@H]4O |  | 4.60 | 
5 | C=C[C@]12CC[C@H]3[C@@](C)(CCC[C@@]3(C)C(=O)OCC)[C@@H]1CC[C@](C)(C(=O)O)C2 | inactive |  | 
6 | C[C@@]12CC[C@@H]3[C@@](CC[C@H]4[C@@]3(C)CCC[C@@]4(C)C(=O)O)(C[C@H]1O)C2 | inactive |  | 
7 | C[C@]12CC[C@H]3[C@]4(C)CCC[C@@](C)(C(=O)O)[C@H]4CC[C@@]3(C1)[C@H](CO)[C@H]2O | inactive |  | 
8 | CCOC(=O)[C@]1(C)CCC[C@@]2(C)[C@@H]3CC[C@@]4(C)C[C@]3(CC[C@@H]21)[C@@H]1CON[C@@H]14 |  | 4.82 | 
9 | CCOC(=O)[C@]1(C)CCC[C@@]2(C)[C@@H]3CC[C@@]4(C)C[C@]3(CC[C@@H]21)[C@@H]1CN(c2ccc([N+](=O)[O-])cc2)N=C14 |  | 4.68 | 
10 | CCOC(=O)[C@]1(C)CCC[C@@]2(C)[C@@H]3CC[C@@]4(C)C[C@]3(CC[C@@H]21)[C@H](CO[N+](=O)[O-])[C@H]4O[N+](=O)[O-] | inactive |  | 
11 | C=C[C@]12CC[C@H]3[C@@](C)(CCC[C@@]3(C)C(=O)OCC)[C@@H]1CC[C@](C)(CN)C2 |  |  | inhibition at 100 µM ([1]; B16-F10, 48 h): 34.3%
12 | C[C@@]12CC[C@@H]3[C@@](CC[C@H]4[C@@]3(C)CCC[C@@]4(C)C(=O)O)(CC1=O)C2 | inactive |  | 
13 | C=C[C@]12CC[C@H]3[C@@](C)(CCC[C@@]3(C)C(=O)OCC)[C@@H]1CC[C@](C)(C=O)C2 | inactive |  | 
14 | C=CC(=O)O[C@@H]1C[C@]23CC[C@H]4[C@@](C)(CCC[C@@]4(C)C(=O)OCC)[C@@H]2CC[C@@]1(C)C3 | inactive |  | 
15 | CCOC(=O)[C@]1(C)CCC[C@@]2(C)[C@@H]3CC[C@@]4(C)C[C@]3(CC[C@@H]21)[C@@H]1CO[C@H]4O1 | inactive |  | 
16 | CCOC(=O)[C@]1(C)CCC[C@@]2(C)[C@@H]3CC[C@@]4(C)C[C@]3(CC[C@@H]21)C[C@H]4O |  | 4.24 | 
17 | C=C[C@]12CC[C@H]3[C@@](C)(CCC[C@@]3(C)C(=O)OCC)[C@@H]1CC[C@](C)(O)C2 |  | 4.59 | 
18 | CCOC(=O)[C@]1(C)CCC[C@@]2(C)[C@@H]3CC[C@@]4(C)C[C@]3(CC[C@@H]21)[C@@H]1CON(C)[C@@H]14 | inactive |  | 
19 | CCOC(=O)[C@]1(C)CCC[C@@]2(C)[C@@H]3CC[C@@]4(C)C[C@]3(CC[C@@H]21)[C@H](CO)[C@H]4O |  | 4.17 | 
20 | CCOC(=O)[C@]1(C)CCC[C@@]2(C)[C@@H]3CC[C@@]4(C)C[C@]3(CC[C@@H]21)c1cn(-c2ccccc2)nc14 |  | 4.72 | 
21 | C=C[C@]12CC[C@H]3[C@@](C)(CCC[C@@]3(C)C(=O)OCC)[C@@H]1CC[C@](C)(C=N)C2 |  | 4.56 | 
